In this test the target is T1, Adenosine-A2A Receptor (AA2AR) (Homo sapiens, UniProt P29274).
T1 construct: gene ADORA2A; human AA2AR N-terminally fused to the flag and decahistidine tags, in nanodiscs
The experiment in a line: biochemical. The class given is binding.

The source of these data is article PMC10608817, “Extending the Affinity Range of Weak Affinity Chromatography for the Identification of Weak Ligands Targeting Membrane Proteins” (Molecules, 2023).

In general, pKd refers to the Kd on a negative log10 scale, so that one unit is a factor of ten.

pKd: −log10 of the molar value.

T1 sequence (P29274 whole entry, the tested form may be a part): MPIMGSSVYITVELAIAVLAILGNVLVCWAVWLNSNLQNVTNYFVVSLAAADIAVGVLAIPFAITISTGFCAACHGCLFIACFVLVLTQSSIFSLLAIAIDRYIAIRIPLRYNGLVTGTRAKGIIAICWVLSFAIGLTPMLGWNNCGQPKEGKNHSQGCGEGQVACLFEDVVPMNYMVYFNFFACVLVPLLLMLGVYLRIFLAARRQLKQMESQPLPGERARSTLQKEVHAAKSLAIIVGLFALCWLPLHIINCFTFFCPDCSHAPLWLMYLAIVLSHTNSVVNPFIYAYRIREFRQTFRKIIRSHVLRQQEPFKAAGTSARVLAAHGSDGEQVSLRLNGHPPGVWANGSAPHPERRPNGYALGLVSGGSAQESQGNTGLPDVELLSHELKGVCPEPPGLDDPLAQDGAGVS

`COc1ccc2[nH]ccc2n1` [F468, 5-methoxy-1H-pyrrolo[3,2-b]pyridine] gave a pKd of 3.68.

As for `COc1cc2cc[nH]c2cn1` [F469, 5-methoxy-1H-pyrrolo[2,3-c]pyridine], the negative-log Kd (pKd) was 3.72.
